US10143691B2, “Pathogenic control of apoptosis” (CSIR, priority 2014, dated 2018)
Entries after “also recorded” stand apart in the source; their conditions may differ.

Tested on: lincRNAp21
Test: lincRNA-p21 expression by RNA FISH spot counts and quantitative RT-PCR
Type: cell-based, human
Conditions: uninfected Ghost(3) cells, drug-treated, smFISH spot count and qRT-PCR
Method: RNA FISH on Ghost(3) cells was performed according to Raj, 2008 and on primary macrophages according to Schaffer, 2013. For both methods 48 20mer probes (Biosearch) targeted to human lincRNAp21 were synthesised baring a […] C6dT. The amino group was subsequently conjugated to the following NHSester dyes: ATTO565, ATTO647N (ATTOTEC) or Alexa Fluor 647 (Invitrogen). Briefly, oligonucleotide probes were ethanol precipitated and resuspended in 0.1 M sodium tetraborate (Sigma). Approximately 0.3 mg of the NHSester dye (ATTOTEC) was dissolved in dimethyl sulphoxide (Sigma). The dye solution was added to the probe solution and incubated overnight in the dark at 37° C. Following the conjugation reaction, the probes were ethanol precipitated overnight, and resuspended in 0.1 M triethyl ammonium (Sigma). Conjugated probes were separated and purified to enrich for dyeconjugated probes by reverse phase HPLC on a C18 column. […]
For each experiment, Ghost(3) cells or IPSO-derived primary macrophages were infected or treated with 500 nM Doxorubicin over time and total RNA was extracted from cells using TRIzol® (Life Technologies), treated with RQ1 RNase-free DNase (Promega) and reverse transcribed using SuperScript III Reverse Transcriptase (Life Technologies). Quantitative RTPCR was performed using Sso Fast EvaGreen™ supermix (BioRad) on a BioRad CFX96 real-time PCR detection system. […]

COc1cccc2c1C(=O)c1c(O)c3c(c(O)c1C2=O)C[C@@](O)(C(=O)CO)C[C@@H]3O[C@H]1C[C@H](N)[C@H](O)[C@H](C)O1 [Doxorubicin]
lincRNA-p21 expression: enhanced; also recorded: significantly increases lincRNAp21 expression over time
